Results as given in EP4803081A2.
Read-outs that look alike come from different tables or passages of the source.

Conditions: ester bond

## CCn1c(-c2cc(N3CCN4CCCC[C@@H]4C3)cnc2[C@H](C)OC)c2c3cc(ccc31)-c1cccc(c1)C[C@H](NC(=O)OC(C)(C)C)C(=O)N1CCC[C@H](N1)C(=O)OCC(C)(C)C2
From CCn1c(-c2cc(N3CCN4CCCC[C@@H]4C3)cnc2[C@H](C)OC)c(CC(C)(C)CO)c2cc(-c3cccc(C[C@H](NC(=O)OC(C)(C)C)C(=O)N4CCC[C@@H](C(=O)O)N4)c3)ccc21, EDCI/HOBt/DIPEA, DCM, 5.81 mM, 25.0 °C, 16.0 h
  ring closure, yield of all isomers: 34%

## CCn1c(-c2cc(N3CCN4CCOC[C@@H]4C3)cnc2[C@H](C)OC)c2c3cc(ccc31)C1=CCCN(C1)C[C@H](NC(=O)OC(C)(C)C)C(=O)N1CCC[C@H](N1)C(=O)OCC(C)(C)C2
From CCn1c(-c2cc(N3CCN4CCOC[C@@H]4C3)cnc2[C@H](C)OC)c(CC(C)(C)CO)c2cc(C3=CCCN(C[C@H](NC(=O)OC(C)(C)C)C(=O)N4CCC[C@@H](C(=O)O)N4)C3)ccc21, EDC·HCl/HOBt/DIPEA, DCM, 11.3 mM, 0.0 °C, 2.0 h
  ring closure, yield of all isomers: 67%

## CO[C@@H](C)c1ncc(N2CCN(C3CC3)CC2)cc1-c1c2c3cc(ccc3n1CC(F)(F)F)-c1csc(n1)C[C@H](NC(=O)OC(C)(C)C)C(=O)N1CCC[C@H](N1)C(=O)OCC(C)(C)C2
From CO[C@@H](C)c1ncc(N2CCN(C3CC3)CC2)cc1-c1c(CC(C)(C)CO)c2cc(-c3csc(C[C@H](NC(=O)OC(C)(C)C)C(=O)N4CCC[C@@H](C(=O)O)N4)n3)ccc2n1CC(F)(F)F, EDCI/HOBt/DIPEA, DCM, 21.07 mM, 25.0 °C, 16.0 h
  ring closure, yield of all isomers: 51%

## CCn1c(-c2cc(N3CCN4CCCC[C@@H]4C3)cnc2[C@H](C)OC)c2c3cc(ccc31)-c1csc(n1)C[C@H](NC(=O)OC(C)(C)C)C(=O)N1CCC[C@H](N1)C(=O)OCC(C)(C)C2
From CCn1c(-c2cc(N3CCN4CCCC[C@@H]4C3)cnc2[C@H](C)OC)c(CC(C)(C)CO)c2cc(-c3csc(C[C@H](NC(=O)OC(C)(C)C)C(=O)N4CCC[C@@H](C(=O)O)N4)n3)ccc21, EDCI/HOBt/DIPEA, DCM, 11.3 mM, 25.0 °C, 16.0 h
  ring closure, yield of all isomers: 49%

## CO[C@@H](C)c1ncc(N2CCN3CCCC[C@@H]3C2)cc1-c1c2c3cc(ccc3n1CC(F)(F)F)-c1cccc(c1)C[C@H](NC(=O)OC(C)(C)C)C(=O)N1CCC[C@H](N1)C(=O)OCC(C)(C)C2
From CO[C@@H](C)c1ncc(N2CCN3CCCC[C@@H]3C2)cc1-c1c(CC(C)(C)CO)c2cc(-c3cccc(C[C@H](NC(=O)OC(C)(C)C)C(=O)N4CCC[C@@H](C(=O)O)N4)c3)ccc2n1CC(F)(F)F, EDCI/HOBt/DIPEA, DCM, 12.85 mM, 0.0 °C, 16.0 h
  ring closure, yield of all isomers: 65%

## CCn1c(-c2cc(N3CCN(C4CC4)CC3)cnc2[C@H](C)OC)c2c3cc(ccc31)N1CCO[C@@H](C[C@H](NC(=O)OCc3ccccc3)C(=O)N3CCC[C@H](N3)C(=O)OCC(C)(C)C2)C1
From CCn1c(-c2cc(N3CCN(C4CC4)CC3)cnc2[C@H](C)OC)c(CC(C)(C)CO)c2cc(N3CCO[C@@H](C[C@H](NC(=O)OCc4ccccc4)C(=O)N4CCC[C@@H](C(=O)O)N4)C3)ccc21, EDCI/HOBt/DIPEA, DCM, 11.25 mM, 30.0 °C, 16.0 h
  ring closure, yield of all isomers: 50%

## CCn1c(-c2cccnc2[C@H](C)OC)c2c3cc(ccc31)C1=CCCN(C1)CC(NC(=O)OC(C)(C)C)C(=O)N1CCC[C@H](N1)C(=O)OCC(C)(C)C2 (some centres unmarked)
From CCn1c(-c2cccnc2[C@H](C)OC)c(CC(C)(C)CO)c2cc(C3=CCCN(CC(NC(=O)OC(C)(C)C)C(=O)N4CCC[C@@H](C(=O)O)N4)C3)ccc21, EDCI/HOBt/DIPEA, DCM, 7.14 mM, 30.0 °C, 16.0 h
  ring closure, yield of all isomers: 40%

## CCn1c(-c2cc(N3CCN4CCCC[C@@H]4C3)cnc2[C@H](C)OC)c2c3cc(ccc31)N1CCO[C@@H](C[C@H](NC(=O)OC(C)(C)C)C(=O)N3CCC[C@H](N3)C(=O)OCC(C)(C)C2)C1
From CCn1c(-c2cc(N3CCN4CCCC[C@@H]4C3)cnc2[C@H](C)OC)c(CC(C)(C)CO)c2cc(N3CCO[C@@H](C[C@H](NC(=O)OC(C)(C)C)C(=O)N4CCC[C@@H](C(=O)O)N4)C3)ccc21, EDCI/HOBt/DIPEA, DMF, 11.2 mM, 25.0 °C, 16.0 h
  ring closure, yield of all isomers: 73%

## CCn1c(-c2cc(N3CCN(C4CC4)CC3)cnc2[C@H](C)OC)c2c3cc(ccc31)C1=CCCN(C1)C[C@H](NC(=O)OC(C)(C)C)C(=O)N1CCC[C@H](N1)C(=O)OCC(C)(C)C2
From CCn1c(-c2cc(N3CCN(C4CC4)CC3)cnc2[C@H](C)OC)c(CC(C)(C)CO)c2cc(C3=CCCN(C[C@H](NC(=O)OC(C)(C)C)C(=O)N4CCC[C@@H](C(=O)O)N4)C3)ccc21, EDCI/HOBt/DIPEA, DCM, 10.0 mM, 35.0 °C, 16.0 h
  ring closure, yield of all isomers: 53%

## CC1(C)COC(=O)[C@@H]2CCCN(N2)C(=O)[C@@H](NC(=O)OC(C)(C)C)Cc2cccc(c2)-c2ccc3[nH]c(I)c(c3c2)C1
From CC(C)(CO)Cc1c(I)[nH]c2ccc(-c3cccc(C[C@H](NC(=O)OC(C)(C)C)C(=O)N4CCC[C@@H](C(=O)O)N4)c3)cc12, EDCI/HOBt/DIPEA, DCM, 12.77 mM, 0.0 °C, 16.0 h
  ring closure, yield of all isomers: 79.8%

## CCn1c(-c2cc(N3CCN4CCOC[C@@H]4C3)cnc2[C@H](C)OC)c2c3cc(ccc31)-c1cccc(c1)C[C@H](NC(=O)OC(C)(C)C)C(=O)N1CCC[C@H](N1)C(=O)OCC(C)(C)C2
From CCn1c(-c2cc(N3CCN4CCOC[C@@H]4C3)cnc2[C@H](C)OC)c(CC(C)(C)CO)c2cc(-c3cccc(C[C@H](NC(=O)OC(C)(C)C)C(=O)N4CCC[C@@H](C(=O)O)N4)c3)ccc21, EDCI/HOBt/DIPEA, DCM, 7.56 mM, 25.0 °C, 16.0 h
  ring closure, yield of all isomers: 81%

## CCn1c(-c2cccnc2[C@H](C)OC)c2c3cc(ccc31)-c1csc(n1)C[C@H](NC(=O)OC(C)(C)C)C(=O)N1CCC[C@H](N1)C(=O)OCC(C)(C)C2
From CCn1c(-c2cccnc2[C@H](C)OC)c(CC(C)(C)CO)c2cc(-c3csc(C[C@H](NC(=O)OC(C)(C)C)C(=O)N4CCC[C@@H](C(=O)O)N4)n3)ccc21, EDCI/HOBt/DIPEA, DCM, 12.65 mM, 25.0 °C, 16.0 h
  ring closure, yield of all isomers: 81%

## CCn1c(-c2cc(N3CCN4CCOC[C@@H]4C3)cnc2[C@H](C)OC)c2c3cc(ccc31)-c1csc(n1)C[C@H](NC(=O)OC(C)(C)C)C(=O)N1CCC[C@H](N1)C(=O)OCC(C)(C)C2
From CCn1c(-c2cc(N3CCN4CCOC[C@@H]4C3)cnc2[C@H](C)OC)c(CC(C)(C)CO)c2cc(-c3csc(C[C@H](NC(=O)OC(C)(C)C)C(=O)N4CCC[C@@H](C(=O)O)N4)n3)ccc21, EDCI/HOBt/DIPEA, DCM, 11.3 mM, 25.0 °C, 16.0 h
  ring closure, yield of all isomers: 52%

## CO[C@@H](C)c1ncc(N2CCN3CCOC[C@@H]3C2)cc1-c1c2c3cc(ccc3n1CC(F)(F)F)-c1cccc(c1)C[C@H](NC(=O)OC(C)(C)C)C(=O)N1CCC[C@H](N1)C(=O)OCC(C)(C)C2
From CO[C@@H](C)c1ncc(N2CCN3CCOC[C@@H]3C2)cc1-c1c(CC(C)(C)CO)c2cc(-c3cccc(C[C@H](NC(=O)OC(C)(C)C)C(=O)N4CCC[C@@H](C(=O)O)N4)c3)ccc2n1CC(F)(F)F, EDCI/HOBt/DIPEA, DCM, 5.34 mM, 25.0 °C, 16.0 h
  ring closure, yield of all isomers: 98%

## CO[C@@H](C)c1ncc(N2CCN(C3CC3)CC2)cc1-c1c2c3cc(ccc3n1CC(F)(F)F)-c1cccc(c1)C[C@H](NC(=O)OC(C)(C)C)C(=O)N1CCC[C@H](N1)C(=O)OCC(C)(C)C2
From CO[C@@H](C)c1ncc(N2CCN(C3CC3)CC2)cc1-c1c(CC(C)(C)CO)c2cc(-c3cccc(C[C@H](NC(=O)OC(C)(C)C)C(=O)N4CCC[C@@H](C(=O)O)N4)c3)ccc2n1CC(F)(F)F, EDCI/HOBt/DIPEA, DCM, 108.7 mM, 25.0 °C, 16.0 h
  ring closure, yield of all isomers: 79%

## CCn1c(-c2cccnc2[C@H](C)OC)c2c3cc(ccc31)N1CCO[C@@H](C[C@H](NC(=O)OCc3ccccc3)C(=O)N3CCC[C@H](N3)C(=O)OCC(C)(C)C2)C1
From CCn1c(-c2cccnc2[C@H](C)OC)c(CC(C)(C)CO)c2cc(N3CCO[C@@H](C[C@H](NC(=O)OCc4ccccc4)C(=O)N4CCC[C@@H](C(=O)O)N4)C3)ccc21, EDCI/HOBt/DIPEA, DCM, 12.75 mM, 25.0 °C, 16.0 h
  ring closure, yield of all isomers: 66%

## CCn1c(-c2cc(N3CCN(C(=O)OCc4ccccc4)CC3)cnc2[C@H](C)OC)c2c3cc(ccc31)-c1csc(n1)C[C@H](NC(=O)OC(C)(C)C)C(=O)N1CCC[C@H](N1)C(=O)OCC(C)(C)C2
From CCn1c(-c2cc(N3CCN(C(=O)OCc4ccccc4)CC3)cnc2[C@H](C)OC)c(CC(C)(C)CO)c2cc(-c3csc(C[C@H](NC(=O)OC(C)(C)C)C(=O)N4CCC[C@@H](C(=O)O)N4)n3)ccc21, EDCI/HOBt/DIPEA, MeCN, 10.34 mM, 25.0 °C, 16.0 h
  ring closure, yield of all isomers: 55%

## CCn1c(-c2cc(N3CCN4CCCC[C@@H]4C3)cnc2[C@H](C)OC)c2c3cc(ccc31)C1=CCCN(C1)C[C@H](NC(=O)OC(C)(C)C)C(=O)N1CCC[C@H](N1)C(=O)OCC(C)(C)C2
From CCn1c(-c2cc(N3CCN4CCCC[C@@H]4C3)cnc2[C@H](C)OC)c(CC(C)(C)CO)c2cc(C3=CCCN(C[C@H](NC(=O)OC(C)(C)C)C(=O)N4CCC[C@@H](C(=O)O)N4)C3)ccc21, EDC•HCl/HOBt/DIPEA, DCM, 11.3 mM, 0.0 °C, 16.0 h
  ring closure, yield of all isomers: 66%

## CO[C@@H](C)c1ncc(N2CCN(C3CC3)CC2)cc1-c1c2c3cc(ccc3n1CC(F)(F)F)N1CCO[C@@H](C[C@H](NC(=O)OC(C)(C)C)C(=O)N3CCC[C@H](N3)C(=O)OCC(C)(C)C2)C1
From CO[C@@H](C)c1ncc(N2CCN(C3CC3)CC2)cc1-c1c(CC(C)(C)CO)c2cc(N3CCO[C@@H](C[C@H](NC(=O)OC(C)(C)C)C(=O)N4CCC[C@@H](C(=O)O)N4)C3)ccc2n1CC(F)(F)F, EDCI/HOBt/DIPEA, DCM, 9.22 mM, 25.0 °C, 16.0 h
  ring closure, yield of all isomers: 64%

## CCn1c(-c2cc(N3CCN4CCC[C@@H]4C3)cnc2[C@H](C)OC)c2c3cc(ccc31)-c1cccc(c1)C[C@H](NC(=O)OC(C)(C)C)C(=O)N1CCC[C@H](N1)C(=O)OCC(C)(C)C2
From CCn1c(-c2cc(N3CCN4CCC[C@@H]4C3)cnc2[C@H](C)OC)c(CC(C)(C)CO)c2cc(-c3cccc(C[C@H](NC(=O)OC(C)(C)C)C(=O)N4CCC[C@@H](C(=O)O)N4)c3)ccc21, EDCI/HOBt/DIPEA, DCM, 16.7 mM, 25.0 °C, 16.0 h
  ring closure, yield of all isomers: 42%
